From patent US11865098B1, “Methods and compositions for treating excessive sleepiness” (Axsome Malta Ltd., priority 2017, dated 2024) come the findings set out here.

Structures are written as SMILES.

The test has as its system adult patients with OSA and ES. Kind of test: EQ-5D-5L, 12-week parallel study in OSA. The format is in vivo, human. The following applies: week 12. As to the method: This was a 12-week, double-blind, placebo-controlled, parallel-design study. Patients were randomized (1:1:2:2:2) to APC 37.5 mg, 75 mg, 150 mg, or 300 mg, or placebo for 12 weeks, and were stratified by adherence or nonadherence with primary OSA therapy.
The SF-36 v2 consists of 2 summary scales (Physical Component Summary and Mental Component Summary) and 8 specific health status domains (Physical Function, Role Physical, Bodily Pain, General Health, Vitality, Social Functioning, Role Emotional, Mental Health) (Ware Jr et al., User's Manual for the SF-36v2™ Health Survey (2nd ed). QualityMetric Incorporated (Lincoln, RI); 2007). […]
Efficacy analyses were based on the modified intent-to-treat (mITT) population; there was no multiplicity adjustment for the SF-36 v2 or EQ-5D-5L. SF-36 v2 scores were scaled from 0 to 100 (higher scores on all scales represent better health), transformed to norm-based scores using US general-population data from SF-36 Manuals (Ware Jr et al., User's Manual for the SF-36v2™ Health Survey (2nd ed.). QualityMetric Incorporated (Lincoln, RI); 2007), and were analyzed using a mixed-effect model with repeated measures (MMRM); and baseline value of the efficacy endpoint was used to determine differences in changes from baseline. EQ-5D-5L VAS and index-score data were analyzed using an MMRM model. […]

Take `NC(=O)OC[C@H](N)Cc1ccccc1` [JZP-110, (R)-2-amino-3-phenylpropyl carbamate]: the “EQ-5D-5L index value, effect” value is listed as “no significant effects”. Further, for the setting “appeared dose dependent”, the “EQ-5D VAS, effect vs placebo” value is reported as “not significantly different from placebo”.
